Data as given in patent US8415379B2, “Pyridines” (Hoffmann-La Roche Inc., priority 2009, dated 2013).

Each compound was assayed against T1, GABA A α5 (human receptors of composition α5β3γ2) (Homo sapiens, UniProt P18507+P31644) (assay: [3H]flumazenil competition binding assay, human GABA A α5β3γ2 receptors in HEK293 cells). Settings: displacement of 0.5 nM [3H]flumazenil, HEK293 membranes, 1 hour at 4° C., means of two determinations, read-out: hKi GABA A α5.
T1 construct: expressed in transfected cells; host or cells: HEK293 cells, transiently transfected; membrane homogenates used
Method: The affinity of compounds at GABA A receptor subtypes was measured by competition for [^3H]flumazenil (85 Ci/mmol; Roche) binding to HEK293 cells expressing rat (stably transfected) or human (transiently transfected) receptors of composition α1β3γ2, α2β3γ2, α3β3γ2 and α5β3γ2.
Cell pellets were suspended in Krebs-tris buffer (4.8 mM KCl, 1.2 mM CaCl2, 1.2 mM MgCl2, 120 mM NaCl, 15 mM Tris; pH 7.5; binding assay buffer), homogenized by polytron for ca. 20 sec on ice and centrifuged for 60 min at 4° C. (50000 g; Sorvall, rotor: SM24=20000 rpm). The cell pellets were re-suspended in Krebs-tris buffer and homogenized by polytron for ca. 15 sec on ice. Protein was measured (Bradford method, Bio-Rad) and aliquots of 1 mL were prepared and stored at −80° C.
Radioligand binding assays were carried out in a volume of […] (96-well plates) which contained […] of cell membranes, [^3H]flumazenil at a concentration of 1 nM for α1, α2 and α3 subunits and 0.5 nM for α5 subunits and the test compound in the range of […]. Nonspecific binding was defined by 10^−5 M diazepam and typically represented less than 5% of the total binding. Assays were incubated to equilibrium for 1 hour at 4° C. and harvested onto GF/C uni-filters (Packard) by filtration using a Packard harvester and washing with ice-cold wash buffer (50 mM Tris; pH 7.5). After drying, filter-retained radioactivity was detected by liquid scintillation counting. Ki values were calculated using Excel-Fit (Microsoft) and are the means of two determinations.

Point of comparison: Cc1onc(-c2ccccn2)c1COc1ccc(C(=O)NN2CCOCC2)nc1 [Example 9, 5-(5-Methyl-3-pyridin-2-yl-isoxazol-4-ylmethoxy)-pyridine-2-carboxylic acid morpholin-4-ylamide], Ki 4.4 nM. Against it:
- CC[C@@H](CO)NC(=O)c1ccc(OCc2c(-c3ccc(F)cc3)noc2CO)cn1 [Example 34, 5-[3-(4-Fluoro-phenyl)-5-hydroxymethyl-isoxazol-4-ylmethoxy]-pyridine-2-carboxylic acid ((S)-1-hydroxymethyl-propyl)-amide] — 1.9-fold higher, 8.3 nM
- O=C(NN1CCOCC1)c1ccc(OCc2c(-c3ccc(F)cc3)noc2CO)cn1 [Example 39, 5-[3-(4-Fluoro-phenyl)-5-hydroxymethyl-isoxazol-4-ylmethoxy]-pyridine-2-carboxylic acid morpholin-4-ylamide] — 5.5-fold lower, 0.8 nM
- Cc1onc(-c2ccccc2)c1COc1ccc(C(=O)NC2CCOC2)nc1 (racemic) [Example 3, Rac-5-(5-Methyl-3-phenyl-isoxazol-4-ylmethoxy)-pyridine-2-carboxylic acid (tetrahydro-furan-3-yl)-amide] — 3.2-fold higher, 13.9 nM
- Cc1onc(-c2ccc(F)cn2)c1COc1ccc(C(=O)N2CCS(=O)(=O)CC2)nc1 [Example 26, (1,1-Dioxo-1,6-thiomorpholin-4-yl)-{5-[3-(5-fluoro-pyridin-2-yl)-5-methyl-isoxazol-4-ylmethoxy]-pyridin-2-yl}-methanone] — 8.4-fold higher, 36.9 nM
- Cc1onc(-c2ccccc2)c1COc1ccc(C(=O)NN(C)C)nc1 [Example 4, 5-(5-Methyl-3-phenyl-isoxazol-4-ylmethoxy)-pyridine-2-carboxylic acid N′,N′-dimethyl-hydrazide] — 6-fold higher, 26.5 nM
- CC(NC(=O)c1ccc(OCc2c(-c3ccc(F)cc3)noc2CO)cn1)C(F)(F)F (centres unmarked) [Example 32, 5-[3-(4-Fluoro-phenyl)-5-hydroxymethyl-isoxazol-4-ylmethoxy]-pyridine-2-carboxylic acid (2,2,2-trifluoro-1-methyl-ethyl)-amide] — 14-fold higher, 60.4 nM
- Cc1onc(-c2ccccn2)c1COc1ccc(C(=O)NC(C)C)nc1 [Example 7, 5-(5-Methyl-3-pyridin-2-yl-isoxazol-4-ylmethoxy)-pyridine-2-carboxylic acid isopropyl-amide] — within 1.5-fold, 3.2 nM
- Cc1onc(-c2ccccn2)c1COc1ccc(C(=O)Nc2cnn(C)c2)nc1 [Example 19, 5-(5-Methyl-3-pyridin-2-yl-isoxazol-4-ylmethoxy)-pyridine-2-carboxylic acid (1-methyl-1H-pyrazol-4-yl)-amide] — 2.6-fold lower, 1.7 nM
- Cc1onc(-c2ccccn2)c1COc1ccc(C(=O)NCC(F)(F)F)nc1 [Example 13, 5-(5-Methyl-3-pyridin-2-yl-isoxazol-4-ylmethoxy)-pyridine-2-carboxylic acid (2,2,2-trifluoro-ethyl)-amide] — within 1.5-fold, 4.6 nM
- Cc1onc(-c2ccccc2)c1COc1ccc(C(=O)NN2CCOCC2)nc1 [Example 5, 5-(5-Methyl-3-phenyl-isoxazol-4-ylmethoxy)-pyridine-2-carboxylic acid morpholin-4-ylamide] — 3.9-fold higher, 17 nM
- Cc1onc(-c2ccccn2)c1COc1ccc(C(=O)NC2CCOCC2)nc1 [Example 6, 5-(5-Methyl-3-pyridin-2-yl-isoxazol-4-ylmethoxy)-pyridine-2-carboxylic acid (tetrahydro-pyran-4-yl)-amide] — within 1.5-fold, 4.8 nM
- Cc1onc(-c2ccc(F)cn2)c1COc1ccc(C(=O)NC(C)C)nc1 [Example 23, 5-[3-(5-Fluoro-pyridin-2-yl)-5-methyl-isoxazol-4-ylmethoxy]-pyridine-2-carboxylic acid isopropylamide] — within 1.5-fold, 3.3 nM
- CNC(=O)c1ccc(OCc2c(-c3ccccn3)noc2C)cn1 [Example 16, 5-(5-Methyl-3-pyridin-2-yl-isoxazol-4-ylmethoxy)-pyridine-2-carboxylic acid methylamide] — 1.6-fold higher, 7.1 nM
- CC(C)(C)NC(=O)c1ccc(OCc2c(-c3ccc(F)cc3)noc2CO)cn1 [Example 36, 5-[3-(4-Fluoro-phenyl)-5-hydroxymethyl-isoxazol-4-ylmethoxy]-pyridine-2-carboxylic acid tert-butylamide] — 17-fold higher, 74.2 nM
- Cc1onc(-c2ccccn2)c1COc1ccc(C(=O)NC2CC2)nc1 [Example 11, 5-(5-Methyl-3-pyridin-2-yl-isoxazol-4-ylmethoxy)-pyridine-2-carboxylic acid cyclopropyl amide] — within 1.5-fold, 3.5 nM
- Cc1onc(-c2ccccn2)c1COc1ccc(C(=O)N2CCSCC2)nc1 [Example 17, [5-(5-Methyl-3-pyridin-2-yl-isoxazol-4-ylmethoxy)-pyridin-2-yl]-thiomorpholin-4-yl-methanone] — 7.5-fold higher, 32.9 nM
- Cc1onc(-c2ccccc2)c1COc1ccc(C(=O)NC(C)C)nc1 [Example 2, 5-(5-Methyl-3-phenyl-isoxazol-4-ylmethoxy)-pyridine-2-carboxylic acid isopropylamide] — 2-fold higher, 8.9 nM
- O=C(NC1CC1)c1ccc(OCc2c(-c3ccc(F)cc3)noc2CO)cn1 [Example 31, 5-[3-(4-Fluoro-phenyl)-5-hydroxymethyl-isoxazol-4-ylmethoxy]-pyridine-2-carboxylic acid cyclopropylamide] — 5.3-fold higher, 23.3 nM
- CC[C@@H](CO)NC(=O)c1ccc(OCc2c(-c3ccccn3)noc2C)cn1 [Example 21, 5-(5-Methyl-3-pyridin-2-yl-isoxazol-4-ylmethoxy)-pyridine-2-carboxylic acid ((S)-1-hydroxymethyl-propyl)-amide] — within 1.5-fold, 4.3 nM
- Cc1onc(-c2ccc(F)cn2)c1COc1ccc(C(=O)NN2CCOCC2)nc1 [Example 25, 5-[3-(5-Fluoro-pyridin-2-yl)-5-methyl-isoxazol-4-ylmethoxy]-pyridine-2-carboxylic acid morpholin-4-ylamide] — within 1.5-fold, 3.9 nM
- Cc1onc(-c2ccccn2)c1COc1ccc(C(=O)N[C@H]2CCC[C@@H]2O)nc1 [Example 18, 5-(5-Methyl-3-pyridin-2-yl-isoxazol-4-ylmethoxy)-pyridine-2-carboxylic acid ((1S,2S)-2-hydroxy-cyclopentyl)-amide] — within 1.5-fold, 5.6 nM
- Cc1onc(-c2ccccn2)c1COc1ccc(C(=O)NCCO)nc1 [Example 14, 5-(5-Methyl-3-pyridin-2-yl-isoxazol-4-ylmethoxy)-pyridine-2-carboxylic acid (2-hydroxy-ethyl)-amide] — 1.8-fold higher, 7.8 nM
- Cc1onc(-c2ccccn2)c1COc1ccc(C(=O)NC(C)(C)CO)nc1 [Example 8, 5-(5-Methyl-3-pyridin-2-yl-isoxazol-4-ylmethoxy)-pyridine-2-carboxylic acid (2-hydroxy-1,1-dimethyl-ethyl)-amide] — 5.1-fold higher, 22.3 nM
- Cc1onc(-c2ccc(F)cn2)c1COc1ccc(C(=O)NC(C)(C)CO)nc1 [Example 24, 5-[3-(5-Fluoro-pyridin-2-yl)-5-methyl-isoxazol-4-ylmethoxy]-pyridine-2-carboxylic acid (2-hydroxy-1,1-dimethyl-ethyl)-amide] — 4-fold higher, 17.5 nM
- O=C(NC1CCOCC1)c1ccc(OCc2c(-c3ccc(F)cc3)noc2CO)cn1 [Example 30, 5-[3-(4-Fluoro-phenyl)-5-hydroxymethyl-isoxazol-4-ylmethoxy]-pyridine-2-carboxylic acid (tetrahydro-pyran-4-yl)-amide] — 6.9-fold higher, 30.3 nM
- O=C(c1ccc(OCc2c(-c3ccc(F)cc3)noc2CO)cn1)N1CCC(F)(F)CC1 [Example 37, (4,4-Difluoro-piperidin-1-yl)-{5-[3-(4-fluoro-phenyl)-5-hydroxymethyl-isoxazol-4-ylmethoxy]-pyridin-2-yl}-methanone] — 2.3-fold higher, 10.2 nM
- O=C(NN1CCCC1)c1ccc(OCc2c(-c3ccc(F)cc3)noc2CO)cn1 [Example 38, 5-[3-(4-Fluoro-phenyl)-5-hydroxymethyl-isoxazol-4-ylmethoxy]-pyridine-2-carboxylic acid pyrrolidin-1-ylamide] — within 1.5-fold, 3.4 nM
- Cc1onc(-c2ccc(F)cn2)c1COc1ccc(C(=O)NCC(F)(F)F)nc1 [Example 28, 5-[3-(5-Fluoro-pyridin-2-yl)-5-methyl-isoxazol-4-ylmethoxy]-pyridine-2-carboxylic acid (2,2,2-trifluoro-ethyl)-amide] — within 1.5-fold, 4.2 nM
- CCC(CO)NC(=O)c1ccc(OCc2c(-c3ccccn3)noc2C)cn1 (racemic) [Example 20, Rac-5-(5-Methyl-3-pyridin-2-yl-isoxazol-4-ylmethoxy)-pyridine-2-carboxylic acid (1-hydroxymethyl-propyl)-amide] — 1.8-fold higher, 8.1 nM
- CC(C)NC(=O)c1ccc(OCc2c(-c3ccc(F)cc3)noc2CO)cn1 [Example 29, 5-[3-(4-Fluoro-phenyl)-5-hydroxymethyl-isoxazol-4-ylmethoxy]-pyridine-2-carboxylic acid isopropylamide] — 16-fold higher, 70.2 nM
- Cn1cc(NC(=O)c2ccc(OCc3c(-c4ccc(F)cc4)noc3CO)cn2)cn1 [Example 35, 5-[3-(4-Fluoro-phenyl)-5-hydroxymethyl-isoxazol-4-ylmethoxy]-pyridine-2-carboxylic acid (1-methyl-1H-pyrazol-4-yl)-amide] — within 1.5-fold, 3.4 nM
